In US20220125745A1, “PHARMACEUTICAL COMPOSITION FOR CO-ADMINISTRATION OF ACIDOSIS-INDUCING DRUG” (HAIM BIO CO., LTD., priority 2018, published 2022):
Like-named read-outs stand apart in the source and are kept apart here.

Assays:
[1] = system: A549 cells (cancer cells); experiment: Lactate assay (luminescence) in A549 cells, candidate substance alone or combined with a substance that causes lactic acidosis; type: cell-based; details: for activity at 50 µM: Homo sapiens
Protocol: (§1) To identify the effects of administration of the candidate substances for lactic acidosis treatment as described in Example 1 in combination with the above-mentioned substances that cause lactic acidosis, A549 cells (cancer cells) or L132 cells (normal cells) were respectively seeded in 96- or 24-well plates at a concentration of 1×10^4 or 3×10^5 cells/well, and incubation was performed overnight. Administration of the candidate substance for acidosis treatment in combination with the substance that causes lactic acidosis was performed and incubation was further performed for 24 hours. For the candidate substances for acidosis treatment, each substance was administered at a uniform concentration of 50 μM; and for the substances that cause lactic acidosis, metformin was administered at 1 to 100 μM, isoniazid was administered at 1 to 500 μM, berberine was administered at 10 μM, linezolid was administered at 200 μM, and phenformin was administered at 100 μM. All substances were dissolved in dimethyl sulfoxide (DMSO, Sigma-Aldrich Corporation, St. Louis, Mo., USA), and the substances to be administered in combination were administered simultaneously. Subsequently, 50 μl of the cell culture solution obtained by being diluted with Dulbecco's Phosphate-Buffered Saline (DPBS; Wellgene, Korea), and 50 μl of the lactate assay reaction buffer (Promega, Madison, Wis., USA) were mixed and the mixture was added in a 96-well plate. Reaction was allowed to proceed at room temperature for 1 hour. Then, luminescence was measured with a spectrophotometer (Synergy HTX Multi-Reader; BioTek, Winooski, Vt., USA). At the same time, the number of cells in each sample was measured with a cell viability analysis kit (Cell Counting Kit-8; Dojindo Molecular Technologies, Inc., Kumamoto, Japan), and calculation was performed so that the lactic acid measurement value in each sample could be compared with that in the negative control for the same number of cells.

[2] = system: L132 cells (normal cells); experiment: Lactate assay (luminescence) in L132 cells, candidate substance alone or combined with a substance that causes lactic acidosis; type: cell-based; details: for activity at 50 µM: Homo sapiens
Protocol: as §1

[3] = A549, candidate 50 μM + berberine 10 μM, relative to berberine alone (PC)
[4] = A549, candidate 50 μM + linezolid 200 μM, relative to linezolid alone (PC)
[5] = A549, candidate 50 μM + phenformin 100 μM, relative to phenformin alone (PC)
[6] = L132, candidate 50 μM + berberine 10 μM, relative to berberine alone (PC)
[7] = L132, candidate 50 μM + linezolid 200 μM, relative to linezolid alone (PC)
[8] = L132, candidate 50 μM + phenformin 100 μM, relative to phenformin alone (PC)

Nc1c(O)cccc1C(=O)CC(N)C(=O)O (racemic) [3-hydroxy-DL-kynurenine, 3-Hydroxy-DL-kynurenine]
Lactic acid value vs. PC (%) [1, 3]: 92.55%
Lactic acid-decreasing rate vs. PC (%) [1, 3]: 7.45%
Lactic acid value vs. PC (%) [1, 4]: 83.68%
Lactic acid-decreasing rate vs. PC (%) [1, 4]: 16.32%
Lactic acid value vs. PC (%) [1, 5]: 91.34%
Lactic acid-decreasing rate vs. PC (%) [1, 5]: 8.66%
Luminescence intensity (%), Berberine (10 μM) − ([1]; A549, candidate 50 μM alone, no berberine, 24 h, vs negative control, mean ± SEM): 91.52 ± 1.46 %
Luminescence intensity (%), Linezolid (200 μM) − ([1]; A549, candidate 50 μM alone, no linezolid, 24 h, vs negative control, mean ± SEM): 91.52 ± 1.46 %
Luminescence intensity (%), Phenformin (100 μM) − ([1]; A549, candidate 50 μM alone, no phenformin, 24 h, vs negative control, mean ± SEM): 91.52 ± 1.46 %
Lactic acid value vs. PC (%) [2, 6]: 87.31%
Lactic acid-decreasing rate vs. PC (%) [2, 6]: 12.69%
Lactic acid value vs. PC (%) [2, 7]: 86.39%
Lactic acid-decreasing rate vs. PC (%) [2, 7]: 13.61%
Lactic acid value vs. PC (%) [2, 8]: 91.76%
Lactic acid-decreasing rate vs. PC (%) [2, 8]: 8.24%
Luminescence intensity (%), Berberine (10 μM) − ([2]; L132, candidate 50 μM alone, no berberine, 24 h, vs negative control, mean ± SEM): 87.48 ± 1.65 %
Luminescence intensity (%), Linezolid (200 μM) − ([2]; L132, candidate 50 μM alone, no linezolid, 24 h, vs negative control, mean ± SEM): 87.48 ± 1.65 %
Luminescence intensity (%), Phenformin (100 μM) − ([2]; L132, candidate 50 μM alone, no phenformin, 24 h, vs negative control, mean ± SEM): 87.48 ± 1.65 %

CS(=O)(=O)Nc1ccc(-c2coc3cc(OCc4cccc(C(=O)O)c4)ccc3c2=O)cc1 [CVT-10216, 3-[[[3-[4-[(methylsulfonyl)amino]phenyl]-4-oxo-4H-chromen-7-yl]oxy]methyl]benzoic acid]
Lactic acid value vs. PC (%) [1, 3]: 95.79%
Lactic acid-decreasing rate vs. PC (%) [1, 3]: 4.21%
Lactic acid value vs. PC (%) [1, 4]: 92.93%
Lactic acid-decreasing rate vs. PC (%) [1, 4]: 7.07%
Lactic acid value vs. PC (%) [1, 5]: 92.13%
Lactic acid-decreasing rate vs. PC (%) [1, 5]: 7.87%
activity at 50 µM ([1]; A549, candidate 50 μM alone, no berberine, 24 h, vs negative control, mean ± SEM, read-out: Luminescence intensity (%), Berberine (10 μM) −): 96.5 ± 1.04%
activity at 50 µM ([1]; A549, candidate 50 μM alone, no linezolid, 24 h, vs negative control, mean ± SEM, read-out: Luminescence intensity (%), Linezolid (200 μM) −): 96.5 ± 1.04%
activity at 50 µM ([1]; A549, candidate 50 μM alone, no phenformin, 24 h, vs negative control, mean ± SEM, read-out: Luminescence intensity (%), Phenformin (100 μM) −): 96.5 ± 1.04%
activity at 50 µM ([2]; L132, candidate 50 μM alone, no berberine, 24 h, vs negative control, mean ± SEM, read-out: Luminescence intensity (%), Berberine (10 μM) −): 97.7 ± 1.1%
activity at 50 µM ([2]; L132, candidate 50 μM alone, no linezolid, 24 h, vs negative control, mean ± SEM, read-out: Luminescence intensity (%), Linezolid (200 μM) −): 97.7 ± 1.1%
activity at 50 µM ([2]; L132, candidate 50 μM alone, no phenformin, 24 h, vs negative control, mean ± SEM, read-out: Luminescence intensity (%), Phenformin (100 μM) −): 97.7 ± 1.1%
Lactic acid value vs. PC (%) [2, 6]: 103.15%
Lactic acid-decreasing rate vs. PC (%) [2, 6]: −3.15%
Lactic acid value vs. PC (%) [2, 7]: 100.28%
Lactic acid-decreasing rate vs. PC (%) [2, 7]: −0.28%
Lactic acid value vs. PC (%) [2, 8]: 99.21%
Lactic acid-decreasing rate vs. PC (%) [2, 8]: 0.79%

O=c1c(-c2ccc(O)cc2)coc2cc(O[C@@H]3O[C@H](CO)[C@@H](O)[C@H](O)[C@H]3O)ccc12 [Daidzin]
Lactic acid value vs. PC (%) [1, 3]: 92.49%
Lactic acid-decreasing rate vs. PC (%) [1, 3]: 7.51%
Lactic acid value vs. PC (%) [1, 4]: 82.45%
Lactic acid-decreasing rate vs. PC (%) [1, 4]: 17.55%
Lactic acid value vs. PC (%) [1, 5]: 99.76%
Lactic acid-decreasing rate vs. PC (%) [1, 5]: 0.24%
activity at 50 µM ([1]; A549, 24 h, read-out: Luminescence intensity (%), Berberine (10 μM) −): 97.4 ± 1.1%
activity at 50 µM ([1]; A549, 24 h, read-out: Luminescence intensity (%), Linezolid (200 μM) −): 97.4 ± 1.1%
activity at 50 µM ([1]; A549, 24 h, read-out: Luminescence intensity (%), Phenformin (100 μM) −): 97.4 ± 1.1%
activity at 50 µM ([2]; L132, 24 h, read-out: Luminescence intensity (%), Berberine (10 μM) −): 92 ± 1.14%
activity at 50 µM ([2]; L132, 24 h, read-out: Luminescence intensity (%), Linezolid (200 μM) −): 92 ± 1.14%
activity at 50 µM ([2]; L132, 24 h, read-out: Luminescence intensity (%), Phenformin (100 μM) −): 92 ± 1.14%
Lactic acid value vs. PC (%) [2, 6]: 95.94%
Lactic acid-decreasing rate vs. PC (%) [2, 6]: 4.06%
Lactic acid value vs. PC (%) [2, 7]: 87.80%
Lactic acid-decreasing rate vs. PC (%) [2, 7]: 12.20%
Lactic acid value vs. PC (%) [2, 8]: 98.19%
Lactic acid-decreasing rate vs. PC (%) [2, 8]: 1.81%
